Data on five compounds can be found in article PMC8950151, “Synthesis and Evaluation of the Antifungal and Toxicological Activity of Nitrofuran Derivatives” (Pharmaceutics, 2022).

Structures are written as SMILES. ≈ marks a conversion by molar mass, not a printed value. Bounds are passed on as bounds.

The test system of series [1] is Candida albicans (ATCC 90028). The experiment in a line: Susceptibility test (CLSI M27-A3 broth microdilution, resazurin readout), MIC90. The class given is cell-based. The note with it: ATCC90028, C. albicans, 24 h, 37 °C. A general note: Dilution methods test growth across graded concentrations, often in twofold steps.
Series [2] deals with Cryptococcus neoformans (H99/ATCC 208821). The experiment in a line: Susceptibility test (CLSI M27-A3 broth microdilution, resazurin readout), MIC90. The note with it: ATCC208821, 48 h. In kind it is cell-based.
Series [3] deals with Trichophyton mentagrophytes (ATCC 11481). The experiment in a line: Minimum fungicidal concentration (MFC). The class given is cell-based. To be noted: Trichophyton mentagrophytes, ATCC11481; T. mentagrophytes.
Series [4] has as its system C. glabrata (ATCC 90030). The experiment in a line: Susceptibility test (CLSI M27-A3 broth microdilution, resazurin readout), MIC90. The note with it: Nakaseomyces glabratus, ATCC90030, 24 h, 37 °C. The class given is cell-based, Candida glabrata.
For series [5], the system named is Candida albicans (ATCC 90028). The experiment in a line: Minimum fungicidal concentration (MFC). The class given is cell-based. The note with it: ATCC90028, C. albicans.
Series [6] relates to Histoplasma capsulatum (G217-B/ATCC 26032). The experiment in a line: microbe, parasite or virus in culture. The class given is cell-based. To be noted: ATCC26032.
The subject of series [7] is Cryptococcus neoformans (H99/ATCC 208821). The experiment in a line: Minimum fungicidal concentration (MFC). The class given is cell-based. To be noted: ATCC208821, C. neoformans.
For series [8], the system named is A549 (ATCC CCL-185) lung epithelial cell line. The experiment in a line: Cytotoxicity assay in monolayer by resazurin colorimetric method. In kind it is cell-based. The note with it: Homo sapiens, A549 cells, 72 h.
The test system of series [9] is Histoplasma capsulatum (G217-B/ATCC 26032). The experiment in a line: microbe, parasite or virus in culture. The note with it: ATCC26032, 144 h. The class given is cell-based.
Series [10] deals with T. rubrum (ATCC 28289). The experiment in a line: Susceptibility assay for dermatophytes (CLSI M38-A2, resazurin), MIC90. In kind it is cell-based. To be noted: Trichophyton rubrum, ATCC28289, 96 h, 35 °C.
The subject of series [11] is C. krusei (ATCC 6258). The experiment in a line: Susceptibility test (CLSI M27-A3 broth microdilution, resazurin readout), MIC90. In kind it is cell-based, Candida krusei. The note with it: Pichia kudriavzevii, ATCC6258, 24 h.
Series [12] has as its system T. rubrum (ATCC 28289). The experiment in a line: Minimum fungicidal concentration (MFC). The note with it: for MFC: Trichophyton rubrum, ATCC28289. The class given is cell-based, Trichophyton rubrum.
For series [13], the system named is Paracoccidioides brasiliensis (Pb 18). The experiment in a line: microbe, parasite or virus in culture. In kind it is cell-based. To be noted: for MFC: Paracoccidioides brasiliensis.
For series [14], the system named is C. krusei (ATCC 6258). The experiment in a line: Minimum fungicidal concentration (MFC). In kind it is cell-based, Candida krusei. The note with it: Pichia kudriavzevii, ATCC6258.
The test system of series [15] is C. glabrata (ATCC 90030). The experiment in a line: Minimum fungicidal concentration (MFC). In kind it is cell-based, Candida glabrata. To be noted: Nakaseomyces glabratus, ATCC90030; C. glabrata; read-out: MFC.
Another series in a line: in vitro. The note with it: human.
The test system of series [16] is Trichophyton mentagrophytes (ATCC 11481). The experiment in a line: Susceptibility assay for dermatophytes (CLSI M38-A2, resazurin), MIC90. The class given is cell-based. To be noted: Trichophyton mentagrophytes, ATCC11481, 96 h, T. mentagrophytes, 35 °C, read-out: MIC90. Background: The colour change of resazurin is a common sign of viable cells or microbes.
For the next series, the system named is T. rubrum ATCC MYA-4438. The experiment in a line: Quality control of dermatophyte susceptibility assay, MIC90. To be noted: Trichophyton rubrum; T. rubrum ATCC MYA-4438 control strain. The class given is cell-based. Here is the method:
The experiments were performed according to CLSI […]-A2 [65] for dermatophytes, with minor modifications as described by Costa-Orlandi et al.. The fungal suspensions were adjusted by counting the conidia in the hematocytometer to reach a final concentration of 2.5 × 10^3 cells/mL in RPMI-1640 medium. This was added to the wells at the appropriate compound concentrations and incubated at 35 °C for 96 h with agitation (150 rpm). Visual and colorimetric readings were taken with the addition of 20 μL of 0.03% resazurin [61]. Quality control was performed using the strain of T. rubrum ATCC MYA-4438, with the drug TRB.

The next series can be described thus: in vivo. The note with it: AU37 [glp-4 (bn2) I, sek-1 (km4) X], Caenorhabditis elegans, C. elegans larvae viability. Here is the method: The experiments were carried out with the mutant strain (AU37 [glp-4 (bn2) I; […]]). The strain was maintained on plates containing nematode growth medium (NGM) seeded with Escherichia coli OP50 at 16 °C. The stage of synchronization of young adults at stage L4 was performed for the toxicity test. About 20 larvae were transferred to each well of 96-well plates containing 100 μL of a medium composed of 60% of 50 mM NaCl; 40% BHI broth; 10 mg/mL cholesterol in ethanol; 200 mg/mL ampicillin and 90 mg/mL kanamycin. Then, 100 μL of dilutions of nitrofuran derivatives (showing the best selectivity index against the fungal species) were added. […] Plates were incubated at 25 °C for 24 h. Survival was assessed by the mobility and shape of the nematode (stick-shaped larvae were considered dead, while sinusoidal larvae were considered alive) under an inverted optical microscope on 40× objective lenses.

Another series concerns Candida species. The experiment in a line: Susceptibility test (CLSI M27-A3), MIC90, stated for Candida species together. In kind it is cell-based. To be noted: read-out: MIC90 against Candida species, Candida species (C. albicans, C. krusei, C. glabrata) taken together.

With `O=C(NCCCn1ccnc1)c1ccc([N+](=O)[O-])o1` [Compound 2, N-(3-(1H-imidazol-1-yl)propyl)-5-nitrofuran-2-carboxamide], the melting point (in general, the temperature of the solid-liquid transition) is 144 to 148 °C. The MIC90 in [1] was more than 250 µg/mL. The MIC90 in series [2] was not below 250 µg/mL. The compound further showed an MFC in series [3] of 125 µg/mL (≈ 473 µM). Further, the MIC90 in the series on C. glabrata (ATCC 90030) [4] is more than 250 µg/mL. The compound further registered an MFC in series [5] of more than 250 µg/mL. Further, the MFC in series [6] is more than 250 µg/mL. This compound came in with an MFC in series [7] not below 250 µg/mL. In addition, the IC50 (commonly the midpoint of a concentration-inhibition curve) in [8] came out at 49.1 µg/mL (≈ 186 µM). Besides, the MIC90 in series [9] is 250 µg/mL (≈ 946 µM). This compound showed an MIC90 in the series on T. rubrum (ATCC 28289) [10] of 125 µg/mL (≈ 473 µM). This compound gave an MIC90 in the series with C. krusei (ATCC 6258) [11] of more than 250 µg/mL. The MFC in the series with T. rubrum (ATCC 28289) [12] is more than 250 µg/mL. This compound yielded an MFC in series [13] of 125 µg/mL (≈ 473 µM). For the same compound, the MFC in the series on C. krusei (ATCC 6258) [14] is more than 250 µg/mL. Moreover, the MFC in the series on C. glabrata (ATCC 90030) [15] was more than 250 µg/mL. In “in vitro”, this compound had an IC50 of 90.8 µg/mL (≈ 343 µM). Besides, the MIC90 in series [16] came to 125 µg/mL (≈ 473 µM).
For `CS(=O)(=O)c1ccc(C(=O)/C=C/c2ccc([N+](=O)[O-])o2)cc1` [Compound 15, (E)-1-(4-(methylsulfonyl)phenyl)-3-(5-nitrofuran-2-yl)prop-2-en-1-one], the melting point was 197 to 200 °C (dec.). The compound also displayed an MIC90 in [1] of more than 250 µg/mL. The compound also registered an MIC90 in series [2] not below 250 µg/mL. The compound also had an MFC in series [3] of 15.6 µg/mL (≈ 48.6 µM). In the series with C. glabrata (ATCC 90030) [4], this compound yielded an MIC90 of more than 250 µg/mL. In addition, the MFC in [5] is more than 250 µg/mL. Also, the MFC in series [6] is more than 250 µg/mL. This compound also returned an MFC in series [7] not below 250 µg/mL. The IC50 in series [8] was found to be 34.2 µg/mL (≈ 107 µM). The MIC90 in [9] is more than 250 µg/mL. The compound also yielded an MIC90 in the series with T. rubrum (ATCC 28289) [10] of 7.8 µg/mL (≈ 24.3 µM). Besides, the MIC90 against C. krusei (ATCC 6258) [11] is more than 250 µg/mL. In addition, the MFC in the series with T. rubrum (ATCC 28289) [12] was determined as 15.6 µg/mL (≈ 48.6 µM). Also, the MFC in [13] stood at 7.81 µg/mL (≈ 24.3 µM). Besides, in the series with C. krusei (ATCC 6258) [14], the MFC is more than 250 µg/mL. For the same compound, in the series with C. glabrata (ATCC 90030) [15], the MFC was more than 250 µg/mL. Besides, half-maximal inhibition in the series “in vitro” (IC50) required 11.5 µg/mL (≈ 35.8 µM). Besides, in series [16], the MIC90 is 7.8 µg/mL (≈ 24.3 µM).
`CN(C/C=C/C#CC(C)(C)C)Cc1cccc2ccccc12` [TRB, terbinafine]: the MIC90 with T. rubrum ATCC MYA-4438 was found to be 0.03 µg/mL (≈ 0.103 µM).
`O=C(/C=C/c1ccc([N+](=O)[O-])o1)c1ccc(Cl)cc1Cl` [Compound 16, (E)-1-(2,4-dichlorophenyl)-3-(5-nitrofuran-2-yl)prop-2-en-1-one] showed a melting point of 164 to 165 °C. The compound also returned an MIC90 in series [1] of 250 µg/mL (≈ 801 µM). For the same compound, the MIC90 in [2] was not below 250 µg/mL. This compound also returned an MFC in [3] of 7.8 µg/mL (≈ 25 µM). This compound displayed an MIC90 with C. glabrata (ATCC 90030) [4] of more than 250 µg/mL. In addition, in [5], the MFC is more than 250 µg/mL. The same compound registered an MFC in [6] of 62.5 µg/mL (≈ 200 µM). This compound showed an MFC in series [7] not below 250 µg/mL. For the same compound, the IC50 in [8] worked out at 35.6 µg/mL (≈ 114 µM). The compound also had an MIC90 in series [9] of 62.5 µg/mL (≈ 200 µM). This compound also came in with an MIC90 in the series on T. rubrum (ATCC 28289) [10] of 7.8 µg/mL (≈ 25 µM). In the series on C. krusei (ATCC 6258) [11], this compound registered an MIC90 of more than 250 µg/mL. In the series on T. rubrum (ATCC 28289) [12] (MFC versus MIC90), the “fungistatic / fungicidal profile” value is recorded as “fungistatic profile”. In the series on T. rubrum (ATCC 28289) [12], this compound had an MFC of 31.2 µg/mL (≈ 100 µM). In addition, the MFC in series [13] came out at 1.95 µg/mL (≈ 6.25 µM). Moreover, the MFC against C. krusei (ATCC 6258) [14] was more than 250 µg/mL. The MFC in the series on C. glabrata (ATCC 90030) [15] was more than 250 µg/mL. For the same compound, in “in vitro”, the IC50 amounted to 29.9 µg/mL (≈ 95.8 µM). Besides, in series [16], the MIC90 was 7.8 µg/mL (≈ 25 µM).
For `O=C(/C=C/c1ccccc1)OCc1ccc([N+](=O)[O-])o1` [Compound 1], the MIC90 in series [1] was 3.9 µg/mL (≈ 14.3 µM); in [2], 31.2 µg/mL (≈ 114 µM); against C. glabrata (ATCC 90030) [4], 7.81 µg/mL (≈ 28.6 µM); in series [9], more than 250 µg/mL; in the series with T. rubrum (ATCC 28289) [10], more than 250 µg/mL; against C. krusei (ATCC 6258) [11], 31.2 µg/mL (≈ 114 µM). Also, the values for the MIC90 (in [16]; in the series with Candida species) were 15.6 µg/mL (≈ 57.1 µM) and 3.9 µg/mL (≈ 14.3 µM), respectively. The MFC in series [3] is 15.6 µg/mL (≈ 57.1 µM); in series [5] it was 125 µg/mL (≈ 457 µM); in series [6], more than 250 µg/mL; in series [7] it was 31.2 µg/mL (≈ 114 µM); in the series with T. rubrum (ATCC 28289) [12], more than 250 µg/mL; in series [13] it was 62.5 µg/mL (≈ 229 µM). In addition, the MFC in the series on C. krusei (ATCC 6258) [14] is 31.2 µg/mL (≈ 114 µM); with C. glabrata (ATCC 90030) [15] it was more than 250 µg/mL. Besides, the viability (as a rule, the share of living cells, or the viability signal relative to a control) at 24 h, 250 µg/mL in “in vivo” was more than 94%. Further, the 50% inhibitory concentration (IC50) stood at 250 µg/mL (≈ 915 µM) in series [8] and 240 µg/mL (≈ 880 µM) in “in vitro”. Besides, in series [13], the “fungistatic / fungicidal profile” value is given as “fungistatic profile”.
